Results as given in patent publication US20240358783A1, “METHOD AND SYSTEM FOR THE TRANSDERMAL ADMINISTRATION OF A P[…]” (LYFE CHNG, LLC, priority 2021, published 2024).

Assay: skin flux of psilocin, inventors' testing
Type: in vitro ADME
Procedure: With psilocin, specifically, the Madsen et al. findings provide a starting point for identifying optimal plasma psilocin levels that correlate with a desired 5-HT2A receptor occupancy levels. According to the inventors' testing, the skin flux of psilocin is in the range of 1 μg/cm^2/hr to […], on average 5 μg/cm^2/hr. With patch area of 50 cm^2 the dose per hour input ranges from 50 μg/hr/patch to 500 μg/hr/patch. At this patch size, the high end of the hourly input is approaching that of a 1-mg intravenous application. The daily dose ranges from 1.2 mg/day/patch to 12 mg/day/patch. At a skin flux of 5 μg/cm^2/hr, the hourly input is 250 μg/hr/patch and the daily dose is 6 mg/day/patch. A suitable transdermal system for accomplishing the aforementioned delivery profile can be constructed as described above.

[1] = patch area of 50 cm^2, at a skin flux of 5 μg/cm^2/hr

CN(C)CCc1c[nH]c2cccc(O)c12 [psilocin]
skin flux of psilocin, on average (average, according to the inventors' testing): 5 μg/cm^2/hr
daily dose [1]: 6 mg/day/patch
hourly input [1]: 250 μg/hr/patch
